Assay results published in ChEMBL document CHEMBL3217509, “Discovery of an HIV integrase inhibitor with an excellent resistance profile” (Medchemcomm, 2013).

Key:
[1] = Intrinsic clearance in human liver microsomes assessed per mg of protein by LC-MS/MS analysis; type: ADME; conditions: read-out: CLH
[2] = system: Human immunodeficiency virus 1; assay: Antiviral activity against HIV1 NL4-3 infected in human MT2 cells after 3 days by human JC53BL cell-based beta-galactosidase reporter gene assay; type: functional, organism-based; conditions: Human immunodeficiency virus 1, NL4-3, JC53BL, 72 h
[3] = Intrinsic clearance in human hepatocytes assessed assessed per million of cells by LC-MS/MS analysis; type: ADME, cell-based, Hepatocyte; conditions: read-out: CLH
[4] = Intrinsic clearance in human liver microsomes assessed per mg of protein by LC-MS/MS analysis in presence of UDPGA; type: ADME; conditions: read-out: CLH
[5] = Aqueous solubility of the compound at pH 7.4; type: physicochemical; conditions: buffer

microsomal CLint [1]: 17.3 µL/min/mg
IC50 [2]: 1 nM
hepatocyte CLint [3]: 2.9 µL/min/1e6 cells
microsomal CLint [4]: < 3.5 µL/min/mg
solubility [5]: < 1 µg/mL
Structure (SMILES): O=C(NCCO)c1c(O)c2ncc3c(ccn3Cc3ccc(F)cc3)c2[nH]c1=O
